Assay results: paper PMC6499206, “Quantification of Volatile Metabolites Derived From Garlic (Allium sativum) in Human Urine” (Frontiers in Nutrition, 2019)

Assay: Quantification of garlic-derived metabolites in human urine after ingestion of 3 g raw garlic (SIDA, SAFE, HRGC-MS / HRGC-GC-MS)
Format: in vivo
Settings: 3 g raw garlic
From the text: Human urine samples were obtained from 18 volunteers (age 22–38 years, mean 27 years; 11 females, 7 males); thereby, one volunteer conducted the whole experimental series twice. At the time of examination, volunteers reported no known illness that might have potentially influenced the metabolism or the excretion of urine. The test persons were instructed to avoid foods that were rich in sulfur-containing substances at the testing day as well as 2 days preceding the testing day, namely garlic, onion, wild garlic, chives, cabbage, and leek, and were only allowed to consume the garlic sample provided in the course of the experiments. Additionally, subjects were asked to keep records of the food (including food supplements) and beverages they consumed during these 3 testing days. Generally, the overall panelists' requirements were in accordance with our previous studies ([5], [16]).
On the sampling day, the outer garlic cloves of a whole garlic bulb were peeled and cut into ~3 mm cubes by using a garlic cutter (Genius GmbH, Limburg/Lahn, Germany). Subsequently these cubes were thoroughly mixed and aliquoted into 3 g portions. Three to four test persons conducted the experiment at the same day. Each test person was asked to ingest a garlic portion of 3 g. In total, eight consecutive urine samples were provided by each test person, comprising one whole urine set. The samples were collected in sterile brown glass bottles, with sampling times as follows: one sample was provided directly prior to garlic consumption. The series of the second to eighth sample was then obtained at about 0.5, 1, 2, 4, 6, 8, and 24 h after garlic consumption, respectively. Between the first urine sample (prior to garlic consumption) and the seventh urine sample (8 h after garlic consumption) test persons only spent urine at the specific time points mentioned before. Another sample was provided at the next morning (24 h after garlic consumption). Between the samples provided 8 and 24 h after garlic consumption no urine was collected. All samples were immediately placed into a −80°C freezer and were kept frozen until further analysis.
The samples of each set were termed according to their sampling time. The following list provides the time intervals that are related to the respective sample name: • - pre: before garlic consumption • - 0.5 h post: 0.4–0.8 h after garlic consumption • - 1 h post: 0.9–1.3 h after garlic consumption • - 2 h post: 1.8 h−2.2 h after garlic consumption • - 4 h post: 3.8–4.4 h after garlic consumption • - 6 h post: 5.8–6.4 h after garlic consumption • - 8 h post: 7.8–8.4 h after garlic consumption • - 24 h post: 23.8–25.6 h after garlic consumption
A creatinine kit (Labor+Technik Eberhard Lehmann GmbH, Berlin, Germany) was used to determine the creatinine content in each urine sample. The determination principle of this kit is based on the reaction of creatinine with picric acid under basic conditions (Jaffé reaction). The formed complex was detected photometrically at a wavelength of 492 nm.
For quantification purposes, the deuterated standards ^2H3-AMS, ^2H3-AMSO, and ^2H3-AMSO2 were added to the sample and stirred for 10 min. Subsequently, DCM was added in a ratio of 1:2 (DCM/human urine; v/v) and this solution was stirred for further 30 min at room temperature. To isolate the volatile fraction from the urine samples we then applied SAFE-distillation ([17]), thereby distilling the respective samples at 50°C. After completion of the distillation process, 10 mL of DCM were applied in each case to rinse the SAFE apparatus and to ensure complete transition of the volatile compounds. This process was repeated with another 10 mL of DCM. After thawing, the obtained aqueous distillate phase was extracted three times with 25 mL DCM. The organic phases were combined, dried over anhydrous Na2SO4 and concentrated to a total volume of 100 μL by means of Vigreux distillation and subsequent micro-distillation at 50°C. […]

- metabolite concentration in urine (U VII, 1 h post (1.08 h)): 239.4 µg/kg
- metabolite concentration in urine, creatinine-normalized (U VII, 1 h post (1.08 h)): 148.3 µg/mmol creatinine
- metabolite concentration in urine (U VII, 2 h post (2.00 h)): 158.6 µg/kg
- metabolite concentration in urine, creatinine-normalized (U VII, 2 h post (2.00 h)): 162.5 µg/mmol creatinine
- metabolite concentration in urine (U VII, 4 h post (4.00 h)): 145.1 µg/kg
- metabolite concentration in urine, creatinine-normalized (U VII, 4 h post (4.00 h)): 90.0 µg/mmol creatinine
- metabolite concentration in urine (U VII, 6 h post (6.00 h)): 123.7 µg/kg
- metabolite concentration in urine, creatinine-normalized (U VII, 6 h post (6.00 h)): 40.0 µg/mmol creatinine
- metabolite concentration in urine (U VII, 8 h post (8.00 h)): 58.6 µg/kg
- metabolite concentration in urine, creatinine-normalized (U VII, 8 h post (8.00 h)): 30.1 µg/mmol creatinine
- metabolite concentration in urine (U VII, 24 h post (24.00 h)): 5.9 µg/kg
- metabolite concentration in urine, creatinine-normalized (U VII, 24 h post (24.00 h)): 1.6 µg/mmol creatinine
- metabolite concentration in urine (U VII, pre (-0.25 h)): 3.4 µg/kg
- metabolite concentration in urine, creatinine-normalized (U VII, pre (-0.25 h)): 1.0 µg/mmol creatinine
- metabolite concentration in urine (U VIII, 0.5 h post (0.52 h)): 184.6 µg/kg
- metabolite concentration in urine, creatinine-normalized (U VIII, 0.5 h post (0.52 h)): 234.8 µg/mmol creatinine
- metabolite concentration in urine (U VIII, 1 h post (1.08 h)): 423.9 µg/kg
- metabolite concentration in urine, creatinine-normalized (U VIII, 1 h post (1.08 h)): 255.5 µg/mmol creatinine
- metabolite concentration in urine (U VIII, 2 h post (2.08 h)): 293.8 µg/kg
- metabolite concentration in urine, creatinine-normalized (U VIII, 2 h post (2.08 h)): 277.9 µg/mmol creatinine
- metabolite concentration in urine (U VIII, 4 h post (4.07 h)): 239.2 µg/kg
- metabolite concentration in urine, creatinine-normalized (U VIII, 4 h post (4.07 h)): 113.3 µg/mmol creatinine
- metabolite concentration in urine (U VIII, 6 h post (6.08 h)): 197.8 µg/kg
- metabolite concentration in urine, creatinine-normalized (U VIII, 6 h post (6.08 h)): 52.6 µg/mmol creatinine
- metabolite concentration in urine (U VIII, 8 h post (7.90 h)): 109.7 µg/kg
- metabolite concentration in urine, creatinine-normalized (U VIII, 8 h post (7.90 h)): 40.0 µg/mmol creatinine
- metabolite concentration in urine (U VIII, 24 h post (23.83 h)): 26.2 µg/kg
- metabolite concentration in urine, creatinine-normalized (U VIII, 24 h post (23.83 h)): 9.9 µg/mmol creatinine
- metabolite concentration in urine (U VIII, pre (-0.33 h)): 61.4 µg/kg
- metabolite concentration in urine, creatinine-normalized (U VIII, pre (-0.33 h)): 13.8 µg/mmol creatinine
- metabolite concentration in urine (U X, 0.5 h post (0.53 h)): 73.7 µg/kg
- metabolite concentration in urine, creatinine-normalized (U X, 0.5 h post (0.53 h)): 38.2 µg/mmol creatinine
- metabolite concentration in urine (U X, 1 h post (1.03 h)): 77.0 µg/kg
- metabolite concentration in urine, creatinine-normalized (U X, 1 h post (1.03 h)): 97.5 µg/mmol creatinine
- metabolite concentration in urine (U X, 2 h post (2.03 h)): 68.8 µg/kg
- metabolite concentration in urine, creatinine-normalized (U X, 2 h post (2.03 h)): 102.4 µg/mmol creatinine
- metabolite concentration in urine (U X, 4 h post (3.85 h)): 68.2 µg/kg
- metabolite concentration in urine, creatinine-normalized (U X, 4 h post (3.85 h)): 51.9 µg/mmol creatinine
- metabolite concentration in urine (U X, 6 h post (5.80 h)): 68.6 µg/kg
- metabolite concentration in urine, creatinine-normalized (U X, 6 h post (5.80 h)): 29.1 µg/mmol creatinine
- metabolite concentration in urine (U X, 8 h post (7.75 h)): 37.9 µg/kg
- metabolite concentration in urine, creatinine-normalized (U X, 8 h post (7.75 h)): 16.3 µg/mmol creatinine
- metabolite concentration in urine (U X, 24 h post (23.97 h)): 23.9 µg/kg
- metabolite concentration in urine, creatinine-normalized (U X, 24 h post (23.97 h)): 2.2 µg/mmol creatinine
- metabolite concentration in urine (U X, pre (-0.07 h)): < LOD^2
- metabolite concentration in urine, creatinine-normalized (U X, pre (-0.07 h)): < LOD^2
- metabolite concentration in urine (U XI, 0.5 h post (0.50 h)): 64.0 µg/kg
- metabolite concentration in urine, creatinine-normalized (U XI, 0.5 h post (0.50 h)): 77.5 µg/mmol creatinine
- metabolite concentration in urine (U XI, 1 h post (1.02 h)): 106.2 µg/kg
- metabolite concentration in urine, creatinine-normalized (U XI, 1 h post (1.02 h)): 133.3 µg/mmol creatinine
- metabolite concentration in urine (U XI, 2 h post (2.00 h)): 102.2 µg/kg
- metabolite concentration in urine, creatinine-normalized (U XI, 2 h post (2.00 h)): 133.3 µg/mmol creatinine
- metabolite concentration in urine (U XI, pre (-0.08 h)): 3.8 µg/kg
- metabolite concentration in urine, creatinine-normalized (U XI, pre (-0.08 h)): 1.1 µg/mmol creatinine
- metabolite concentration in urine (U XII, 0.5 h post (0.48 h)): 83.8 µg/kg
- metabolite concentration in urine, creatinine-normalized (U XII, 0.5 h post (0.48 h)): 11.2 µg/mmol creatinine
- metabolite concentration in urine (U XII, 1 h post (1.03 h)): 82.1 µg/kg
SMILES: C=CC[S+](C)[O-] (stereo not drawn) [AMSO, allyl methyl sulfoxide]
